From article PMC10952433, “A Chemoenzymatic Approach To Produce a Cyclic Analogue of the Analgesic Drug MVIIA (Ziconotide)” (Angewandte Chemie (International Ed. in English), 2023)

Tests used:
CaV2.2 [1] = target: T1, CaV2.2 (Homo sapiens, UniProt Q00975)
CaV2.2 [2] = target: T1, CaV2.2; experiment: cell-based
in vitro = conditions: simulated intestinal fluid, pH 6.8

T1 sequence (Q00975 whole entry, looked up): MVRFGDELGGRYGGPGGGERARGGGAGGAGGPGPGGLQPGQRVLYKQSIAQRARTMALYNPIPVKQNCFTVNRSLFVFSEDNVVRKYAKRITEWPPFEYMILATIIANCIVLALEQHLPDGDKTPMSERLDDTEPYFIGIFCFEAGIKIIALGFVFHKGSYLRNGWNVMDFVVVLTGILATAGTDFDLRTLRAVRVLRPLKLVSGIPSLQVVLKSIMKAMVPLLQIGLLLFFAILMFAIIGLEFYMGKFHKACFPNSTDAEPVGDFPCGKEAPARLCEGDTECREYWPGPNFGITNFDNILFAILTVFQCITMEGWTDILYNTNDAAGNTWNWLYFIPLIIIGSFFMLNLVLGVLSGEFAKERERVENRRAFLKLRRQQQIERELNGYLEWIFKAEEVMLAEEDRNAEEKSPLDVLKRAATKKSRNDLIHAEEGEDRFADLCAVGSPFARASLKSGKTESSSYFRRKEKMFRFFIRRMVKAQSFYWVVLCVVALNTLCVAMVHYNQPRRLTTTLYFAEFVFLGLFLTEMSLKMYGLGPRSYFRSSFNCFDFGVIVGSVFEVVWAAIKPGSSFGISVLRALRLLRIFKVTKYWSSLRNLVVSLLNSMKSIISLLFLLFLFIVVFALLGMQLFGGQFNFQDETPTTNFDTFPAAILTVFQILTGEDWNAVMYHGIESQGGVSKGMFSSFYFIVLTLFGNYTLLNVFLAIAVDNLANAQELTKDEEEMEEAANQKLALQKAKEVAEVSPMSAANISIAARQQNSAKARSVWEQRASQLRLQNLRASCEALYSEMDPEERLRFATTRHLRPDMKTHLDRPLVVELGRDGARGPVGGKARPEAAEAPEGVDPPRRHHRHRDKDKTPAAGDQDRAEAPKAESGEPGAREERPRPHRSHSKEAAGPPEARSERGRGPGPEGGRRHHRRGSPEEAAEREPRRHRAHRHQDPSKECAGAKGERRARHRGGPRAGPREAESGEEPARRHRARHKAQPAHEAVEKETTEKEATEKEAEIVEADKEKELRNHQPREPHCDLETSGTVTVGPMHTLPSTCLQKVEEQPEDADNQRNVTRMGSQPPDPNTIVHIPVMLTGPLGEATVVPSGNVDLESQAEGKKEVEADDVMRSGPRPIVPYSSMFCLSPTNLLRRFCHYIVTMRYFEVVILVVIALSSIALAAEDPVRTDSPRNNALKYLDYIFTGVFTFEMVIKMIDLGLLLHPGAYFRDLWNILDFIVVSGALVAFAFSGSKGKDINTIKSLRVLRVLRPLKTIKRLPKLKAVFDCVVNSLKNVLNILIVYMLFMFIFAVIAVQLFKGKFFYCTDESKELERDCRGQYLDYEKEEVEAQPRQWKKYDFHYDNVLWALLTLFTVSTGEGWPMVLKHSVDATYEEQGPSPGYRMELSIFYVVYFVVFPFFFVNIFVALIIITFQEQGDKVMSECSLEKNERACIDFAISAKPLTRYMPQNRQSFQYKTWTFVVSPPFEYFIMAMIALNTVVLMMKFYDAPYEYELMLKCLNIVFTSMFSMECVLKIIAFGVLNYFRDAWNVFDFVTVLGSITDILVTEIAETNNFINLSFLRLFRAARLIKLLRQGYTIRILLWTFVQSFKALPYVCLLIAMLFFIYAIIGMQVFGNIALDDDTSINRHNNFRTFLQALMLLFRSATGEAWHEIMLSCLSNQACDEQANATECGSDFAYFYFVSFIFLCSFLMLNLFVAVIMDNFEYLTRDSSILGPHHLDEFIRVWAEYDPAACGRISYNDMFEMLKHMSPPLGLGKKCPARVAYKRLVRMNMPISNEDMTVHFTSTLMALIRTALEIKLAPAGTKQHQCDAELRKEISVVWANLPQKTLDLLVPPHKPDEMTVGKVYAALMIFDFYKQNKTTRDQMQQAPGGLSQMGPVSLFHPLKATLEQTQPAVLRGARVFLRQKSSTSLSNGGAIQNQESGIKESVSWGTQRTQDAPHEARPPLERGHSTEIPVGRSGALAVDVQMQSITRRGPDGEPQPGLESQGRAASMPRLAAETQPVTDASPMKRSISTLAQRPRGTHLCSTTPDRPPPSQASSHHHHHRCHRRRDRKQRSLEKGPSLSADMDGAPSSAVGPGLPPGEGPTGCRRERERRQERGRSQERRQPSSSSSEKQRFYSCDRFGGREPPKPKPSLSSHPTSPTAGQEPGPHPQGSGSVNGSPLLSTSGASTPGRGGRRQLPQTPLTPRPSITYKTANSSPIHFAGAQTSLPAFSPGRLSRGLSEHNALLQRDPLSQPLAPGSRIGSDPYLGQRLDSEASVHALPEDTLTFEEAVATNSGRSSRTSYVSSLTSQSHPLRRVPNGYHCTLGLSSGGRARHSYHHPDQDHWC

**Q.** What does the source list for `CCCC[C@@H]1NC(=O)[C@H](CC(C)C)NC(=O)[C@H](CCCNC(=N)N)NC(=O)[C@H](CO)NC(=O)[C@@H]2CSSC[C@@H]3NC(=O)[C@H](CO)NC(=O)CNC(=O)[C@H]([C@@H](C)O)NC(=O)[C@@H]4CSSC[C@H](NC(=O)[C@H](C)NC(=O)[C@H](C)NC(=O)CNC(=O)CNC(=O)[C@H](CC(N)=O)NC(=O)CNC(=O)CNC(=O)[C@H](C)NC(=O)[C@H](CSSC[C@H](NC(=O)[C@H](CC(=O)O)NC(=O)[C@H](Cc5ccc(O)cc5)NC1=O)C(=O)N4)NC(=O)[C@H](CCCCN)NC(=O)CNC(=O)[C@H](CO)NC(=O)[C@H](CCCNC(=N)N)NC3=O)C(=O)N[C@@H](CCCCN)C(=O)NCC(=O)N[C@@H](CCCCN)C(=O)NCC(=O)N[C@@H](C)C(=O)N[C@@H](CCCCN)C(=O)N2` [cM-8]?
**A.** LogEC50 (CaV2.2 [1]): -7.6; EC50 (CaV2.2 [2]): 21.8 nM; IC50 (CaV2.2 [2]): 21.8 ± 1.2 nM

**Q.** Which LogEC50 (CaV2.2 [1]) does the source give for `CCCC[C@@H]1NC(=O)[C@H](CC(C)C)NC(=O)[C@H](CCCNC(=N)N)NC(=O)[C@H](CO)NC(=O)[C@@H]2CSSC[C@@H]3NC(=O)[C@H](CO)NC(=O)CNC(=O)[C@H]([C@@H](C)O)NC(=O)[C@@H]4CSSC[C@H](NC(=O)[C@H](C)NC(=O)CNC(=O)CNC(=O)[C@H](CC(N)=O)NC(=O)CNC(=O)[C@H](C)NC(=O)[C@H](CSSC[C@H](NC(=O)[C@H](CC(=O)O)NC(=O)[C@H](Cc5ccc(O)cc5)NC1=O)C(=O)N4)NC(=O)[C@H](CCCCN)NC(=O)CNC(=O)[C@H](CO)NC(=O)[C@H](CCCNC(=N)N)NC3=O)C(=O)N[C@@H](CCCCN)C(=O)NCC(=O)N[C@@H](CCCCN)C(=O)NCC(=O)N[C@@H](C)C(=O)N[C@@H](CCCCN)C(=O)N2` [cM-6] here?
**A.** The LogEC50 was -7.4.

**Q.** And the EC50 (CaV2.2 [2])?
**A.** Its EC50 is 43.2 nM.

**Q.** What about the IC50 (CaV2.2 [2]) of the same compound?
**A.** The IC50 was 43.2 ± 1.4 nM.

**Q.** What does the source list for `CCCC[C@@H]1NC(=O)[C@H](CC(C)C)NC(=O)[C@H](CCCNC(=N)N)NC(=O)[C@H](CO)NC(=O)[C@@H]2CSSC[C@@H]3NC(=O)[C@H](CO)NC(=O)CNC(=O)[C@H]([C@@H](C)O)NC(=O)[C@@H]4CSSC[C@H](NC(=O)[C@H](C)NC(=O)[C@H](C)NC(=O)CNC(=O)CNC(=O)[C@H](CC(N)=O)NC(=O)CNC(=O)CNC(=O)[C@H](C)NC(=O)[C@H](C)NC(=O)[C@H](CSSC[C@H](NC(=O)[C@H](CC(=O)O)NC(=O)[C@H](Cc5ccc(O)cc5)NC1=O)C(=O)N4)NC(=O)[C@H](CCCCN)NC(=O)CNC(=O)[C@H](CO)NC(=O)[C@H](CCCNC(=N)N)NC3=O)C(=O)N[C@@H](CCCCN)C(=O)NCC(=O)N[C@@H](CCCCN)C(=O)NCC(=O)N[C@@H](C)C(=O)N[C@@H](CCCCN)C(=O)N2` [cM-9]?
**A.** LogEC50 (CaV2.2 [1]): -6.4; EC50 (CaV2.2 [2]): 307 nM; IC50 (CaV2.2 [2]): 306.6 ± 1.5 nM

**Q.** For `CCCC[C@@H]1NC(=O)[C@H](CC(C)C)NC(=O)[C@H](CCCNC(=N)N)NC(=O)[C@H](CO)NC(=O)[C@@H]2CSSC[C@@H]3NC(=O)[C@H](CO)NC(=O)CNC(=O)[C@H]([C@@H](C)O)NC(=O)[C@@H]4CSSC[C@H](NC(=O)[C@H](C)NC(=O)[C@H](C)NC(=O)CNC(=O)CNC(=O)[C@H](CC(N)=O)NC(=O)CNC(=O)[C@H](C)NC(=O)[C@H](CSSC[C@H](NC(=O)[C@H](CC(=O)O)NC(=O)[C@H](Cc5ccc(O)cc5)NC1=O)C(=O)N4)NC(=O)[C@H](CCCCN)NC(=O)CNC(=O)[C@H](CO)NC(=O)[C@H](CCCNC(=N)N)NC3=O)C(=O)N[C@@H](CCCCN)C(=O)NCC(=O)N[C@@H](CCCCN)C(=O)NCC(=O)N[C@@H](C)C(=O)N[C@@H](CCCCN)C(=O)N2` [cM-7], which LogEC50 (CaV2.2 [1]) is on record?
**A.** Its LogEC50 is -7.8.

**Q.** What about the EC50 (CaV2.2 [2]) of the same compound?
**A.** The EC50 was 13.5 nM.

**Q.** And the IC50 (CaV2.2 [2])?
**A.** The IC50 was 13.5 ± 1.2 nM.

**Q.** And the half-life (in vitro)?
**A.** The half-life was 43 min.

**Q.** What about the remaining at 1 h (in vitro) of the same compound?
**A.** Its remaining at 1 h is roughly 38%.

**Q.** Which LogEC50 (CaV2.2 [1]) does the source give for `CSCC[C@@H]1NC(=O)[C@H](CC(C)C)NC(=O)[C@H](CCCNC(=N)N)NC(=O)[C@H](CO)NC(=O)[C@@H]2CSSC[C@@H]3NC(=O)[C@H](CO)NC(=O)CNC(=O)[C@H]([C@@H](C)O)NC(=O)[C@H](CSSC[C@H](N)C(=O)N[C@@H](CCCCN)C(=O)NCC(=O)N[C@@H](CCCCN)C(=O)NCC(=O)N[C@@H](C)C(=O)N[C@@H](CCCCN)C(=O)N2)NC(=O)[C@H](CSSC[C@@H](C(=O)O)NC(=O)[C@H](CCCCN)NC(=O)CNC(=O)[C@H](CO)NC(=O)[C@H](CCCNC(=N)N)NC3=O)NC(=O)[C@H](CC(=O)O)NC(=O)[C@H](Cc2ccc(O)cc2)NC1=O` [M-3] here?
**A.** Its LogEC50 is -8.8.

**Q.** And the EC50 (CaV2.2 [2])?
**A.** Its EC50 is 1.7 nM.

**Q.** And the IC50 (CaV2.2 [2])?
**A.** The IC50 was 1.7 ± 1.2 nM.

**Q.** What does the source list for `CCCC[C@@H]1NC(=O)[C@H](CC(C)C)NC(=O)[C@H](CCCNC(=N)N)NC(=O)[C@H](CO)NC(=O)[C@@H]2CSSC[C@@H]3NC(=O)[C@H](CO)NC(=O)CNC(=O)[C@H]([C@@H](C)O)NC(=O)[C@H](CSSC[C@H](N)C(=O)N[C@@H](CCCCN)C(=O)NCC(=O)N[C@@H](CCCCN)C(=O)NCC(=O)N[C@@H](C)C(=O)N[C@@H](CCCCN)C(=O)N2)NC(=O)[C@H](CSSC[C@@H](C(N)=O)NC(=O)[C@H](CCCCN)NC(=O)CNC(=O)[C@H](CO)NC(=O)[C@H](CCCNC(=N)N)NC3=O)NC(=O)[C@H](CC(=O)O)NC(=O)[C@H](Cc2ccc(O)cc2)NC1=O` [M-2]?
**A.** LogEC50 (CaV2.2 [1]): -9.9; EC50 (CaV2.2 [2]): 0.1 nM; IC50 (CaV2.2 [2]): 0.1 nM
